Measurements published in ChEMBL document CHEMBL1129187, “Synthesis, enzymatic phosphorylation and antiviral activity of acyclic dienyl phosphonate derivatives of guanine” (Bioorg Med Chem Lett, 1996).

Columns and labels:
[1] = tested on: C8166; assay: Compound was evaluated for the inhibition of p24 viral antigen production in C-8166 cells.; assay type: functional, cell-based; settings: Homo sapiens
[2] = tested on: MT4; assay: Compound was evaluated for the concentration required to reduce the viability of MT-4 cells.; assay type: functional; settings: Homo sapiens
[3] = tested on: MT4; assay: Compound was evaluated for the inhibition of HIV-1 induced cytopathic effect in MT-4 cells.; assay type: functional, cell-based; settings: Homo sapiens
[4] = Ratio of kinetic parameters of Vmax to Km was reported
[5] = tested on: Human betaherpesvirus 5; assay: Inhibition of HCMV replication in Vero cells at 250 uM; No inhibition; assay type: functional, organism-based
[6] = tested on: Vero; assay: Cytotoxicity against Vero cells up to 250 uM; Not active; assay type: functional, cell-based, Chlorocebus sabaeus
[7] = tested on: Human betaherpesvirus 5; assay: Inhibition of HCMV replication in MRC-5 cells; No inhibition; assay type: functional, organism-based; settings: mrc5
[8] = tested on: Human alphaherpesvirus 1; assay: Tested for activity against HSV-1; Not active; assay type: functional, organism-based
[9] = tested on: Human alphaherpesvirus 1; assay: Inhibitory activity against HSV-1 replication; assay type: functional, organism-based
[10] = tested on: Human alphaherpesvirus 1; assay: Anti-HSV-1 activity at 300 uM; Not active; assay type: functional, organism-based

| Structure (SMILES) | EC50 [1] | CC50 [2] | EC50 [3] | Ratio [4] | IC50 [5] | IC50 [6] | IC50 [7] | IC50 [8] | IC50 [9] | IC50 [10] |
| --- | --- | --- | --- | --- | --- | --- | --- | --- | --- | --- |
| O=c1[nH]cnc2c1ncn2[C@H]1CC[C@@H](CO)O1 [DIDANOSINE] | 0.9 µM | > 1000 µM | 13 µM |  |  |  |  |  |  |  |
| Nc1nc2c(ncn2[C@@H]2O[C@H](COP(=O)(O)O)[C@H](O)[C@@H]2O)c(=O)[nH]1 |  |  |  | 100 |  |  |  |  |  |  |
| C=C(/C=C/P(=O)(O)O)CCn1cnc2c(O)nc(N)nc21 | 8 µM | > 1000 µM | 49 µM | 102 | Not Active | Not Active | Not Active | Not Active |  |  |
| Cc1cn([C@H]2C[C@H](N=[N+]=[N-])[C@@H](CO)O2)c(=O)[nH]c1=O [ZIDOVUDINE] | 0.04 µM |  | 0.04 µM |  |  |  |  |  |  |  |
| Nc1ncnc2c1ncn2CCOCP(=O)(O)O [ADEFOVIR] | 1.5 µM |  | 20 µM |  |  |  |  |  | 117 µM |  |
| C=C(/C=C/P(=O)(O)O)Cn1cnc2c(O)nc(N)nc21 |  | > 1000 µM | > 100 µM | 1.8 | Not Active | Not Active | Not Active |  | 119 µM | Not Active |
